Measurements from US7419966B2, “[5-carboxamido or 5-fluoro]-[2′,3′-unsaturated or 3′-modified]-pyrimidine nucleosides” (Emory University, priority 1995, dated 2008).
Like-named read-outs stand apart in the source and are kept apart here.

Experiments:
Format in all cases: cell-based
CEM cells = test: Toxicity in CEM cells
Vero cells = test: Toxicity in Vero cells
[1] = test system: uninfected human PBM cells; test: Toxicity in mitogen-stimulated uninfected human PBM cells (cell count, trypan blue exclusion)
Protocol: Mitogen stimulated uninfected human PBM cells (3.8×10^5 cells/ml) were cultured in the presence and absence of drug under similar conditions as those used for the antiviral assay described above. The cells were counted after 6 days using a hemacytometer and the trypan blue exclusion method, as described by Schinazi et al., Antimicrobial Agents and Chemotherapy, 22(3), 499 (1982). […]

HIV-1 (strain LAV) = test: Anti-HIV-1 activity in PHA-stimulated human PBM cells (reverse transcriptase readout)
Protocol: The ability of nucleosides to inhibit HIV can be measured by various experimental techniques. The technique used herein, and described in detail below, measures the inhibition of viral replication in phytohemagglutinin (PHA) stimulated human peripheral blood mononuclear (PBM) cells infected with HIV-1. (strain LAV). The amount of virus produced is determined by measuring the virus-coded reverse transcriptase enzyme. The amount of enzyme produced is proportional to the amount of virus produced.
Three-day-old phytohemagglutinin-stimulated PBM cells (10^6 cells/ml) from hepatitis B and HIV-1 seronegative healthy donors were infected with HIV-1 (strain LAV) at a concentration of about 100 times the 50% tissue culture infectious dose (TICD 50) per ml and cultured in the presence and absence of various concentrations of antiviral compounds.
Approximately one hour after infection, the medium, with the compound to be tested (2 times the final concentration in medium) or without compound, was added to the flasks (5 ml; final volume 10 ml). AZT was used as a positive control.
The cells were exposed to the virus (about 2×10^5 dpm/ml, as determined by reverse transcriptase assay) and then placed in a CO2 incubator. HIV-1 (strain LAV) was obtained from the Center for Disease Control, Atlanta, Ga. The methods used for culturing the PBM cells, harvesting the virus and determining the reverse transcriptase activity were those described by McDougal et al. (J. Immun. Meth. 76, 171-183, 1985) and Spira et al. (J. Clin. Meth. 25, 97-99, 1987), except that fungizone was not included in the medium (see Schinazi, et al., Antimicrob. Agents Chemother. 32, 1784-1787 (1988); Id., 34:1061-1067 (1990)).
On day 6, the cells and supernatant were transferred to a 15 ml tube and centrifuged at about 900 g for 10 minutes. Five ml of supernatant were removed and the virus was concentrated by centrifugation at 40,000 rpm for 30 minutes (Beckman 70.1 Ti rotor). The solubilized virus pellet was processed for determination of the levels of reverse transcriptase. Results are expressed in dpm/ml of sampled supernatant. Virus from smaller volumes of supernatant (1 ml) can also be concentrated by centrifugation prior to solubilization and determination of reverse transcriptase levels.

HSV-1F = test: Anti-HSV-1 activity in Vero cells; settings: Table 1
various cell lines = test: Toxicity in various cell lines (PBM, CEM, Vero); settings: various cell lines
[2] = test system: 2.2.15 cells (HepG2 cells transformed with hepatitis virion); test: Toxicity in 2.2.15 cells by neutral red dye uptake; settings: for toxicity, in words: HBV assay; for IC50: Table 2, 2.2.15 cells, read-out: Cytotoxicity IC50 ± SD
Protocol: Toxicity analyses were performed to assess whether any observed antiviral effects were due to a general effect on cell viability. The method used herein was the measurement of the uptake of neutral red dye, a standard and widely used assay for cell viability in a variety of virus-host systems, including HSV and HIV. Toxicity analyses were performed in 96-well flat bottomed tissue culture plates. Cells for the toxicity analyses were cultured and treated with test compounds with the same schedule as described for the antiviral evaluations below. Each compound was tested at 4 concentrations, each in triplicate cultures (wells “A”, “B”, and “C”). Uptake of neutral red dye was used to determine the relative level of toxicity. The absorbance of internalized dye at 510 nm (Asin) was used for the quantitative analysis. Values are presented as a percentage of the average Asin values in 9 separate cultures of untreated cells maintained on the same 96-well plate as the test compounds. Dye uptake in the 9 control cultures on plate 5 ranged from 91.6% to 110.4%, and on plate 6 from 96.6% to 109%.

[3] = test system: hepatitis B virus in transfected HepG-2 (2.2.15) cells; test: Anti-HBV activity in 2.2.15 cell cultures (HBV virion DNA and replicative intermediates); settings: for EC50 / EC90: Table 2, day 9; for activity against HBV, in words: text b71, b81
Protocol: The ability of the active compounds to inhibit the growth of virus in 2.2.15 cell cultures (HepG2 cells transformed with hepatitis virion) can be evaluated as described in detail below.
A summary and description of the assay for antiviral effects in this culture system and the analysis of HBV DNA has been described (Korba and Milman, 1991, Antiviral Res., 15:217). The antiviral evaluations were performed on two separate passages of cells. All wells, in all plates, were seeded at the same density and at the same time.
Due to the inherent variations in the levels of both intracellular and extracellular HBV DNA, only depressions greater than 3.5-fold (for HBV virion DNA) or 3.0-fold (for HBV DNA replication intermediates) from the average levels for these HBV DNA forms in untreated cells are considered to be statistically significant [P<0.05]. The levels of integrated HBV DNA in each cellular DNA preparation (which remain constant on a per cell basis in these experiments) were used to calculate the levels of intracellular HBV DNA forms, thereby ensuring that equal amounts of cellular DNA were compared between separate samples.
Typical values for extracellular HBV virion DNA in untreated cells ranged from 50 to 150 pg/ml culture medium (average of approximately 76 pg/ml). Intracellular HBV DNA replication intermediates in untreated cells ranged from 50 to 100 pg/μg cell DNA (average approximately 74 pg/μg cell DNA). In general, depressions in the levels of intracellular HBV DNA due to treatment with antiviral compounds are less pronounced, and occur more slowly, than depressions in the levels of HBV virion DNA (Korba and Milman, 1991, Antiviral Res., 15:217).

HIV-2ROD2 = test: Anti-HIV-2 activity in PBMC
SIVSMM = test: Anti-SIV activity in PBMC
[4] = Table 1, uninfected human PBM cells, 6 days
[5] = Table 1, HIV-1LAI, human PBM cells, estimated 10% error factor, read-out: Anti-HIV-1 in PBMC EC50
[6] = extracellular DNA, untreated control 102 pg/ml, read-out: HBV virion EC50 ± SD
[7] = extracellular DNA, untreated control 102 pg/ml, read-out: HBV virion EC90 ± SD
[8] = replicative intermediates (intracellular DNA), untreated control 87 pg/μg cell DNA, read-out: HBV RI EC50 ± SD
[9] = replicative intermediates (intracellular DNA), untreated control 87 pg/μg cell DNA, read-out: HBV RI EC90 ± SD

Compound | IC50 (CEM cells; Table 1) | IC50 (Vero cells; Table 1) | IC50 [1, 4] | EC50 (HIV-1 (strain LAV); [5]) | also measured
CNC(=O)c1cn([C@@H]2CS[C@H](CO)O2)c(=O)nc1N (racemic) [C N-Methylaminoformyl (±)-β-DL] | > 100 µM | > 100 µM | > 100 µM | > 100 µM | 
Nc1nc(=O)n([C@@H]2CS[C@H](CO)O2)cc1[N+](=O)[O-] (racemic) [C Nitro (±)-β-DL] | > 100 µM | > 100 µM | > 100 µM | 100 µM | 
CCc1cn([C@@H]2CS[C@H](CO)O2)c(=O)[nH]c1=O (racemic) [U Ethyl (±)-β-DL] | > 100 µM | > 100 µM | > 100 µM | > 100 µM | 
Nc1nc2c(ncn2COCCO)c(=O)[nH]1 [Acyclovir, reference compound] |  |  |  |  | EC50 (HSV-1F; Human alphaherpesvirus 1, Vero): 0.04 µM
N#Cc1cn([C@@H]2CS[C@H](CO)O2)c(=O)nc1N (racemic) [C Cyano (±)-β-DL] | > 100 µM | > 100 µM | > 100 µM | > 100 µM | 
5-carboxylic acid amide-2′,3′-dideoxy-3′-thiacytidine [C Carboxamide (±)-β-DL] | > 100 µM | > 100 µM | > 100 µM |  | EC50 (HSV-1F): > 100 µM; toxicity (no toxicity up to) (various cell lines): > 100 µM; EC50 (HIV-1 (strain LAV); HIV-1 in PBM cells, read-out: median effective concentration (antiviral activity)): 0.77 µM
Nc1cn([C@@H]2CS[C@H](CO)O2)c(=O)nc1N (racemic) [C Amino (±)-β-DL] | > 100 µM | > 100 µM | > 100 µM | 26.4 µM | 
C#Cc1cn([C@@H]2CS[C@H](CO)O2)c(=O)[nH]c1=O (racemic) [U Ethynyl (±)-β-DL] | > 100 µM | > 100 µM | > 100 µM | 23.8 µM | 
5-carboxylic acid amide-2′,3′-dideoxy-3′-thiacytidine [C Carboxamide (+)-β-D] |  |  |  | 8.5 µM | toxicity, in words [2]: relatively nontoxic; IC50 [2]: 1120 ± 72 µM; EC50 [3, 6]: 0.11 ± 0.012 µM; EC90 [3, 7]: 0.9 ± 0.1 µM; EC50 [3, 8]: 0.5 ± 0.04 µM; EC90 [3, 9]: 3.8 ± 0.3 µM; activity against HBV, in words [3]: significant activity against HBV
O=c1[nH]c(=O)n([C@@H]2CS[C@H](CO)O2)cc1[N+](=O)[O-] (racemic) [U Nitro (±)-β-DL] | > 100 µM | > 100 µM | > 100 µM | 122 µM | 
Nc1cn([C@@H]2CS[C@H](CO)O2)c(=O)[nH]c1=O (racemic) [U Amino (±)-β-DL] | > 100 µM | > 100 µM | > 100 µM | 119 µM | 
COC(=O)c1cn(C2CSC(CO)O2)c(=O)nc1N (racemic) [C Methoxycarbonyl (±)-β-DL, 5-carboxylic acid methyl ester-2′,3′-dideoxy-3′-thiacytidine] | > 100 µM | > 100 µM | > 100 µM | 38.9 µM | 
Nc1ccn([C@@H]2CS[C@H](CO)O2)c(=O)n1 (single isomer, unassigned) [3TC, (−)-enantiomer of 2-hydroxymethyl-5-(cytosin-1-yl)-1,3-oxathiolane, reference compound] | > 100 µM | > 100 µM | > 100 µM | 0.002 µM | IC50 (CEM cells; Table 3): > 100 µM; IC50 (Vero cells; Table 3): > 100 µM; EC50 (HIV-2ROD2; Table 3, HIV-2ROD2, read-out: Anti-HIV-2 in PBMC EC50): 0.02 µM; EC50 (SIVSMM; Table 3, SIVSMM, read-out: Anti-SIV in PBMC EC50): 0.02 µM; IC50 ([1]; Table 3): > 100 µM; EC50 (HSV-1F): > 100 µM; EC50 (HIV-1 (strain LAV); Table 3, HIV-1LAI, estimated 10% error factor, read-out: Anti-HIV-1 in PBMC EC50): 0.002 µM
COC(=O)c1cn([C@@H]2CS[C@H](CO)O2)c(=O)[nH]c1=O (racemic) [U Methoxycarbonyl (±)-β-DL] | > 100 µM | > 100 µM | > 100 µM | > 100 µM | EC50 (HSV-1F): > 100 µM
NC(=O)c1cn([C@@H]2CS[C@H](CO)O2)c(=O)nc1N [C Carboxamide (−)-β-L, 5-carboxylic acid amide-2′,3′-dideoxy-3′-thiacytidine] | > 100 µM | > 100 µM | > 100 µM | 3.6 µM | EC50 (HIV-2ROD2; Table 1 footnote b, read-out: EC50 against HIV-2ROD2): 1.6 µM; EC50 (SIVSMM; Table 1 footnote b, read-out: EC50 against SIVSMM): 4 µM; toxicity, in words [2]: relatively nontoxic; IC50 [2]: 1750 ± 212 µM; EC50 [3, 6]: 0.29 ± 0.02 µM; EC90 [3, 7]: 1.5 ± 0.2 µM; EC50 [3, 8]: 1.3 ± 0.1 µM; EC90 [3, 9]: 9.9 ± 0.8 µM; activity against HBV, in words [3]: significant activity against HBV
CCc1cn([C@@H]2CS[C@H](CO)O2)c(=O)nc1N (racemic) [C Ethyl (±)-β-DL] | > 100 µM | > 100 µM | > 100 µM | 102 µM | 
NC(=O)c1cn([C@@H]2CS[C@H](CO)O2)c(=O)[nH]c1=O (racemic) [U Carboxamide (±)-β-DL, 5-carboxamide-2′,3′-dideoxy-3′-thiauridine] | > 100 µM | > 100 µM | > 100 µM | > 100 µM | 
CN(C)C(=O)c1cn([C@@H]2CS[C@H](CO)O2)c(=O)nc1N (racemic) [C N,N-Dimethylaminoformyl (±)-β-DL] | > 100 µM | > 100 µM | > 100 µM | > 100 µM | 
N#Cc1cn([C@@H]2CS[C@H](CO)O2)c(=O)[nH]c1=O (racemic) [U Cyano (±)-β-DL] | > 100 µM |  | > 100 µM | > 100 µM | 
C#Cc1cn([C@@H]2CS[C@H](CO)O2)c(=O)nc1N (racemic) [C Ethynyl (±)-β-DL] | > 100 µM | > 100 µM | > 100 µM | > 100 µM | 
